Reference: patent US20060159648A1, “Novel therapeutic method and compositions for topical administration” (priority 2003, published 2006)
Like-named read-outs stand apart in the source and are kept apart here.

What was measured:
[1] = cited from earlier work; for clearance: in adults
[2] = cited from earlier work; for Plasma protein binding: Product Information; for plasma bound fraction: value used in the flux equations
[3] = human pharmacokinetics after oral dosing (literature); format: in vivo, humans; details: for Z, target local free (unbound) concentration = peak plasma free drug concentration: peak plasma concentration*(100-PBF)/100
Text: Z is expressed in units of ng/ml and is the target local free ( i.e. unbound) concentration that is expected to have a therapeutic effect against the skin condition. In the case of PPAR gamma agonists, Z should correspond to the peak plasma free drug concentration generated by dosing these drugs orally to treat effectively Type II diabetes mellitus. The appropriate value of Z may be determined experimentally in vivo by conventional known means using standard protocols.
C is expressed in units of ml/hr and is the rate of clearance of the drug substance. Clearance may be determined experimentally in vivo by conventional known means using standard tests. For example it can be determined from the plasma concentration in response to a defined input of drug using the equation given below: Clearance (ml/hr)=Input rate (ng/hr)/Total plasma concentration (ng/ml)

fasting plasma glucose = details: type II diabetes patients, cited from earlier work

| Z, target local free (unbound) concentration = peak plasma free drug concentration [3] | clearance ([3]; human, plasma, oral, in adults, from Clearance/Bioavailability and bioavailability with a meal) | Structure (SMILES) | Peak plasma concentration ([1]; 30 mg dose) | clearance [1] | Plasma protein binding [2] | plasma bound fraction [2] | Peak plasma concentration ([1]; 8 mg dose) | time to achieve a reduction of fasting plasma glucose by 2 mmol 1 (fasting plasma glucose; 2 mg b.i.d. dosage regimen) | time to achieve a reduction of fasting plasma glucose by 2 mmol 1 (fasting plasma glucose; 4 mg b.i.d. dosage regimen) | Peak plasma concentration ([1]; 400 mg dose) | Bioavailability ([1]; with a meal) | Clearance/Bioavailability ([1]; with a meal) |
| --- | --- | --- | --- | --- | --- | --- | --- | --- | --- | --- | --- | --- |
| 3.5 ng/mL | – | CCc1ccc(CCOc2ccc(CC3SC(=O)NC3=O)cc2)nc1 (stereo not drawn) [pioglitazone, 5-[4-[2-(5-ethyl-2-pyridyl)ethoxy]benzyl]thiazolidine-2,4-dione] | about 700 ng/ml | 2400 mL/h | > 99% | 99.5% | – | – | – | – | – | – |
| 1.7 ng/mL | – | CN(CCOc1ccc(CC2SC(=O)NC2=O)cc1)c1ccccn1 (stereo not drawn) [rosiglitazone, 5-[4-[2-(N-methyl-N-(2-pyridyl)amino)ethoxy]benzyl]thiazolidine-2,4-dione] | – | 2780 mL/h | – | 99.72% | about 600 ng/ml | about 8 weeks | about 4 weeks | – | – | – |
| 7.5 ng/mL | 425 mL/min | Cc1c(C)c2c(c(C)c1O)CCC(C)(COc1ccc(CC3SC(=O)NC3=O)cc1)O2 (stereo not drawn) [troglitazone, 5-[[4-[(3,4-dihydro-6-hydroxy-2,5,7,8-tetramethyl-2H-1-benzopyran-2-yl)methoxy]phenyl]methyl]-2,4-thiazolidinedione] | – | – | 99% | 99.5% | – | – | – | about 1500 ng/ml | ~85% | 500 mL/min |
